According to BigSolDB 2.1:

CC[C@H](C)C(=O)O[C@H]1C[C@H](O)C=C2C=C[C@H](C)[C@H](CC[C@@H](O)C[C@@H](O)CC(=O)[O-])[C@H]21.[Na+]
solubility (mole fraction) (in ethanol, 278 K): 0.0031 | solubility (mole fraction) (in ethanol, 283 K): 0.00325 | solubility (mole fraction) (in ethanol, 288 K): 0.00346 | solubility (mole fraction) (in ethanol, 293 K): 0.00366 | solubility (mole fraction) (in ethanol, 298 K): 0.00406 | solubility (mole fraction) (in ethanol, 303 K): 0.00429 | solubility (mole fraction) (in ethanol, 318 K): 0.00569 | solubility (mole fraction) (in ethanol, 323 K): 0.00692 | solubility (mole fraction) (in ethanol, 328 K): 0.00793 | solubility (mole fraction) (in ethanol, 333 K): 0.00942 | solubility (mole fraction) (in isopropanol, 278 K): 0.000605 | solubility (mole fraction) (in isopropanol, 283 K): 0.000684 | solubility (mole fraction) (in isopropanol, 288 K): 0.000753 | solubility (mole fraction) (in isopropanol, 293 K): 0.000818 | solubility (mole fraction) (in isopropanol, 298 K): 0.000903 | solubility (mole fraction) (in isopropanol, 303 K): 0.00103 | solubility (mole fraction) (in isopropanol, 308 K): 0.0011 | solubility (mole fraction) (in isopropanol, 318 K): 0.00141 | solubility (mole fraction) (in isopropanol, 322.9 K): 0.00164 | solubility (mole fraction) (in isopropanol, 327.9 K): 0.0019 | solubility (mole fraction) (in methanol, 277.8 K): 0.0225 | solubility (mole fraction) (in methanol, 283 K): 0.0245 | solubility (mole fraction) (in methanol, 287.9 K): 0.027 | solubility (mole fraction) (in methanol, 293 K): 0.0301 | solubility (mole fraction) (in methanol, 297.8 K): 0.0326 | solubility (mole fraction) (in methanol, 302.9 K): 0.0373 | solubility (mole fraction) (in methanol, 308 K): 0.0418 | solubility (mole fraction) (in methanol, 313 K): 0.0492 | solubility (mole fraction) (in methanol, 318 K): 0.0588 | solubility (mole fraction) (in methanol, 324 K): 0.0687 | solubility (mole fraction) (in n-butanol, 278.1 K): 0.00108 | solubility (mole fraction) (in n-butanol, 283 K): 0.00118 | solubility (mole fraction) (in n-butanol, 288 K): 0.00127 | solubility (mole fraction) (in n-butanol, 293 K): 0.00144 | solubility (mole fraction) (in n-butanol, 298 K): 0.00159 | solubility (mole fraction) (in n-butanol, 303 K): 0.00178 | solubility (mole fraction) (in n-butanol, 308 K): 0.00223 | solubility (mole fraction) (in n-butanol, 313 K): 0.0029 | solubility (mole fraction) (in n-butanol, 318.2 K): 0.00345 | solubility (mole fraction) (in n-butanol, 323 K): 0.00408 | solubility (mole fraction) (in n-butanol, 328 K): 0.00493 | solubility (mole fraction) (in n-propanol, 278 K): 0.00208 | solubility (mole fraction) (in n-propanol, 283 K): 0.00216 | solubility (mole fraction) (in n-propanol, 288 K): 0.00219 | solubility (mole fraction) (in n-propanol, 293 K): 0.00227 | solubility (mole fraction) (in n-propanol, 298 K): 0.00238 | solubility (mole fraction) (in n-propanol, 308 K): 0.00343 | solubility (mole fraction) (in n-propanol, 313 K): 0.00449 | solubility (mole fraction) (in n-propanol, 318 K): 0.0062 | solubility (mole fraction) (in n-propanol, 328 K): 0.0122 | solubility (mole fraction) (in n-propanol, 333 K): 0.0158 | solubility (mole fraction) (in water, 278.4 K): 0.00911 | solubility (mole fraction) (in water, 283 K): 0.0119 | solubility (mole fraction) (in water, 288 K): 0.0162 | solubility (mole fraction) (in water, 293 K): 0.0216 | solubility (mole fraction) (in water, 298 K): 0.0285 | solubility (mole fraction) (in water, 303 K): 0.0343 | solubility (mole fraction) (in water, 313 K): 0.0477 | solubility (mole fraction) (in water, 318 K): 0.0553 | solubility (mole fraction) (in water, 323 K): 0.0642 | solubility (mole fraction) (in water, 328 K): 0.0723 | solubility (mole fraction) (in water, 333 K): 0.0841
